From ChEMBL document CHEMBL3885881, “DrugMatrix”

Species on record: Rattus norvegicus
Assay: DrugMatrix - Regimen: Daily Repeat
Type: toxicity, organism-based, Sprague-Dawley
Design: regimen Daily Repeat, gender Male, age 6-8 weeks
Conditions: in vivo, po, route oral GAVAGE, […]; for ABSOLUTE BASOPHIL / ABSOLUTE EOSINOPHIL / ABSOLUTE LYMPHOCYTE / ABSOLUTE MONOCYTE / ABSOLUTE SEGMENTED NEUTROPHIL / BASOPHIL / EOSINOPHIL / ERYTHROCYTE COUNT / HEMATOCRIT / HEMOGLOBIN / LEUKOCYTE COUNT / LYMPHOCYTE / MEAN CORPUSCULAR HEMOGLOBIN / MEAN CORPUSCULAR HEMOGLOBIN CONCENTRATION / MEAN CORPUSCULAR VOLUME / MONOCYTE / NEUTROPHIL / NUCLEATED RED BLOOD CELLS / PLATELET COUNT: tissue Blood; for ALANINE AMINOTRANSFERASE / ALBUMIN / ALKALINE PHOSPHATASE / ASPARTATE AMINOTRANSFERASE / BLOOD UREA NITROGEN / CARBON DIOXIDE / CHLORIDE / CHOLESTEROL / CREATINE PHOSPHOKINASE / CREATININE / GLUCOSE / LACTATE DEHYDROGENASE / LIPASE / PHOSPHORUS / POTASSIUM / SODIUM / TOTAL BILIRUBIN / TOTAL PROTEIN / URIC ACID: tissue Plasma
[1] = 100 mg/kg, 120 h, dose level Low, time 5 day
[2] = 750 mg/kg, 72 h, dose level High, time 3 day
[3] = 750 mg/kg, 120 h, dose level High, time 5 day

Structure (SMILES): CCn1cc(C(=O)O)c(=O)c2cc(F)c(N3CCNCC3)nc21 [ENOXACIN]
- ABSOLUTE BASOPHIL [1]: 0 CELLS/uL
- ABSOLUTE EOSINOPHIL [1]: 262.67 CELLS/uL
- ABSOLUTE LYMPHOCYTE [1]: 12714 CELLS/uL
- ABSOLUTE MONOCYTE [1]: 457 CELLS/uL
- ABSOLUTE SEGMENTED NEUTROPHIL [1]: 1799.67 CELLS/uL
- BASOPHIL [1]: 0%
- EOSINOPHIL [1]: 1.33%
- ERYTHROCYTE COUNT [1]: 5.43 x10E6/uL
- HEMATOCRIT [1]: 34.07%
- HEMOGLOBIN [1]: 13.27 G/DL
- LEUKOCYTE COUNT [1]: 15.23 x10E3/uL
- LYMPHOCYTE [1]: 83.33%
- MEAN CORPUSCULAR HEMOGLOBIN [1]: 24.4 pg
- MEAN CORPUSCULAR HEMOGLOBIN CONCENTRATION [1]: 38.93 G/DL
- MEAN CORPUSCULAR VOLUME [1]: 62.67 fL
- MONOCYTE [1]: 3%
- NEUTROPHIL [1]: 12.33%
- NUCLEATED RED BLOOD CELLS [1]: 0 /100WBC
- PLATELET COUNT [1]: 958 x10E3/uL
- ALANINE AMINOTRANSFERASE [1]: 51.33 u/L
- ALBUMIN [1]: 4.1 G/DL
- ALKALINE PHOSPHATASE [1]: 295.33 u/L
- ASPARTATE AMINOTRANSFERASE [1]: 76.33 u/L
- BLOOD UREA NITROGEN [1]: 14.33 mg/dL
- CARBON DIOXIDE [1]: 23 mmol/L
- CHLORIDE [1]: 101 MEQ/L
- CHOLESTEROL [1]: 78.33 mg/dL
- CREATINE PHOSPHOKINASE [1]: 454 u/L
- CREATININE [1]: 0.19 mg/dL
- GLUCOSE [1]: 186.67 mg/dL
- LACTATE DEHYDROGENASE [1]: 187 u/L
- LIPASE [1]: 6.33 u/L
- PHOSPHORUS [1]: 12.27 mg/dL
- POTASSIUM [1]: 6.41 MEQ/L
- SODIUM [1]: 140.57 MEQ/L
- TOTAL BILIRUBIN [1]: 0.13 mg/dL
- TOTAL PROTEIN [1]: 5.9 G/DL
- URIC ACID [1]: 1.2 mg/dL
- ABSOLUTE BASOPHIL [2]: 0 CELLS/uL
- ABSOLUTE EOSINOPHIL [2]: 0 CELLS/uL
- ABSOLUTE LYMPHOCYTE [2]: 12588.33 CELLS/uL
- ABSOLUTE MONOCYTE [2]: 501.33 CELLS/uL
- ABSOLUTE SEGMENTED NEUTROPHIL [2]: 1877 CELLS/uL
- BASOPHIL [2]: 0%
- EOSINOPHIL [2]: 0%
- ERYTHROCYTE COUNT [2]: 5.55 x10E6/uL
- HEMATOCRIT [2]: 34.83%
- HEMOGLOBIN [2]: 13.57 G/DL
- LEUKOCYTE COUNT [2]: 14.97 x10E3/uL
- LYMPHOCYTE [2]: 84.33%
- MEAN CORPUSCULAR HEMOGLOBIN [2]: 24.47 pg
- MEAN CORPUSCULAR HEMOGLOBIN CONCENTRATION [2]: 38.93 G/DL
- MEAN CORPUSCULAR VOLUME [2]: 62.87 fL
- MONOCYTE [2]: 3.33%
- NEUTROPHIL [2]: 12.33%
- NUCLEATED RED BLOOD CELLS [2]: 0 /100WBC
- PLATELET COUNT [2]: 1299.33 x10E3/uL
- ALANINE AMINOTRANSFERASE [2]: 54 u/L
- ALBUMIN [2]: 3.8 G/DL
- ALKALINE PHOSPHATASE [2]: 389 u/L
- ASPARTATE AMINOTRANSFERASE [2]: 64.33 u/L
- BLOOD UREA NITROGEN [2]: 14.67 mg/dL
- CARBON DIOXIDE [2]: 24.67 mmol/L
- CHLORIDE [2]: 101.67 MEQ/L
- CHOLESTEROL [2]: 66.33 mg/dL
- CREATINE PHOSPHOKINASE [2]: 317.67 u/L
- CREATININE [2]: 0.12 mg/dL
- GLUCOSE [2]: 181.33 mg/dL
- LACTATE DEHYDROGENASE [2]: 80.33 u/L
- LIPASE [2]: 10 u/L
- PHOSPHORUS [2]: 9.8 mg/dL
- POTASSIUM [2]: 5.81 MEQ/L
- SODIUM [2]: 140.9 MEQ/L
- TOTAL BILIRUBIN [2]: 0.1 mg/dL
- TOTAL PROTEIN [2]: 5.63 G/DL
- URIC ACID [2]: 1.27 mg/dL
- ABSOLUTE BASOPHIL [3]: 0 CELLS/uL
- ABSOLUTE EOSINOPHIL [3]: 145 CELLS/uL
- ABSOLUTE LYMPHOCYTE [3]: 12773 CELLS/uL
- ABSOLUTE MONOCYTE [3]: 466 CELLS/uL
- ABSOLUTE SEGMENTED NEUTROPHIL [3]: 1749.33 CELLS/uL
- BASOPHIL [3]: 0%
- EOSINOPHIL [3]: 1%
- ERYTHROCYTE COUNT [3]: 5.4 x10E6/uL
- HEMATOCRIT [3]: 33.53%
- HEMOGLOBIN [3]: 13.27 G/DL
- LEUKOCYTE COUNT [3]: 15.13 x10E3/uL
- LYMPHOCYTE [3]: 84.33%
- MEAN CORPUSCULAR HEMOGLOBIN [3]: 24.57 pg
- MEAN CORPUSCULAR HEMOGLOBIN CONCENTRATION [3]: 39.6 G/DL
- MEAN CORPUSCULAR VOLUME [3]: 62.07 fL
- MONOCYTE [3]: 3%
- NEUTROPHIL [3]: 11.67%
- NUCLEATED RED BLOOD CELLS [3]: 0 /100WBC
- PLATELET COUNT [3]: 1091.67 x10E3/uL
- ALANINE AMINOTRANSFERASE [3]: 57.67 u/L
- ALBUMIN [3]: 4.03 G/DL
- ALKALINE PHOSPHATASE [3]: 396.33 u/L
- ASPARTATE AMINOTRANSFERASE [3]: 69.67 u/L
- BLOOD UREA NITROGEN [3]: 12.67 mg/dL
- CARBON DIOXIDE [3]: 24 mmol/L
- CHLORIDE [3]: 101.33 MEQ/L
- CHOLESTEROL [3]: 61.33 mg/dL
- CREATINE PHOSPHOKINASE [3]: 482.67 u/L
- CREATININE [3]: 0.16 mg/dL
- GLUCOSE [3]: 207 mg/dL
- LACTATE DEHYDROGENASE [3]: 141 u/L
- LIPASE [3]: 6.67 u/L
- PHOSPHORUS [3]: 13.2 mg/dL
- POTASSIUM [3]: 5.17 MEQ/L
- SODIUM [3]: 141.5 MEQ/L
- TOTAL BILIRUBIN [3]: 0.13 mg/dL
- TOTAL PROTEIN [3]: 5.8 G/DL
- URIC ACID [3]: 1.5 mg/dL
